Results published in ChEMBL document CHEMBL5518235, “Identification of Novel Series of Potent and Selective Relaxin Family Peptide Receptor 1 (RXFP1) Agonists” (J Med Chem, 2024).
pIC50: −log10 of the molar value. Activity calls are given as the source filed them. The rule behind the calls is not given here.

Experiments:
[1] = Cytotoxicity against human THP-1 cells assessed as reduction of cell viability incubated for 48 hrs by resazurin reduction assay; format: toxicity, cell-based
[2] = Cytotoxicity against human HepG2 cells cultured under glucose condition assessed as reduction in cell viability; format: toxicity, cell-based
[3] = Unbound Cmax in Sprague-Dawley rat at 1.5 mg/kg, iv administered via bolus followed by 9.0 mg/kg, iv administered via infusion for 3 hrs and measured 1 hrs post washout by LC-MS/MS analysis; format: ADME, organism-based; conditions: in vivo
[4] = target: T1, Relaxin receptor 1 (Rattus norvegicus) (UniProt Q6R6I6); experiment: In vivo agonist activity at RXFP1 in Sprague-Dawley rat assessed as hemodynamic effect by measuring increase in heart rate at 1.5 mg/kg, iv administered via bolus followed by 9.0 mg/kg, iv administered via infusion for 3 hrs and measured 1 hrs post washout; format: functional, organism-based
T1 sequence (whole entry): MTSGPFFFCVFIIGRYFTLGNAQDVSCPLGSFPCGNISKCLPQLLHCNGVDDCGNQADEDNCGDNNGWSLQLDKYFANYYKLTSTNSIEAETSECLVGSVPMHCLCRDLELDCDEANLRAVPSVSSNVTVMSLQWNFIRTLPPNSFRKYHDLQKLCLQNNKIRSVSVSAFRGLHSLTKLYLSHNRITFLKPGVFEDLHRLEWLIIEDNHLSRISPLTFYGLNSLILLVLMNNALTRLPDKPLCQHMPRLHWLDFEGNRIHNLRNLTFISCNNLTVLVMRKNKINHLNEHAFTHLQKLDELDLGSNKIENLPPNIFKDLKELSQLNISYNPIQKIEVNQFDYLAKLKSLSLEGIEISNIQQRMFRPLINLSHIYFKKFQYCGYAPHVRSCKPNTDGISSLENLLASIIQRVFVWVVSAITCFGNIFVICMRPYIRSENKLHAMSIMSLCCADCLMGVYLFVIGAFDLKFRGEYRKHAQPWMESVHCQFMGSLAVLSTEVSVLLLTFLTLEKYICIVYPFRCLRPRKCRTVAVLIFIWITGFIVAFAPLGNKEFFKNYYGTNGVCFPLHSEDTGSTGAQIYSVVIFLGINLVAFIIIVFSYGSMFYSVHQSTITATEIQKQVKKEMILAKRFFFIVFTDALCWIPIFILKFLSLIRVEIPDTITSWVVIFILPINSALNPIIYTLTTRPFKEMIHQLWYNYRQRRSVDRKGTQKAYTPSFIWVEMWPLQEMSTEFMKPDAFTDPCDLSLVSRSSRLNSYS

- fCmax [3]: 10 nM
Structure (SMILES): COc1cc(F)c(O[C@H]2CC[C@@](C)(C(=O)O)CC2)cc1C(=O)N[C@@H]1[C@H]2CC[C@H](C2)[C@@H]1C(=O)Nc1ccc(F)c(S(F)(F)(F)(F)F)c1
- IC50 at 48 h [1]: 15 µM
- pIC50 [2]: 4.17
- Activity [4]: Active
